pIC50: −log10 of the molar value. Like-named read-outs stand apart in the source and are kept apart here. Values belong to the molecule of their own block, whether it stands above or below them.
Key:
[1] = test system: tumors induced by A2780/CP70 cells; test: Blood vessel numbers of A2780/CP70 tumors on CAM; assay type: in vivo, chicken embryo; details: 2.5 μM CDDP alone, 10 days
Description: (§1) FIG. 4. […] The A2780/CP70 cells were seeded into 100 mm dish and grown to 90-100% confluence. […] In 10 days, the tumors were harvested and weighed. The blood vessel numbers of the tumor were counted under×100. At least five areas were determined. The data are mean±SD from two experiments (n=8). A, representative tumor morphology; B, tumor weight; C, relative numbers of blood vessels.

[2] = test system: tumors induced by A2780/CP70 cells; test: Tumor weight of A2780/CP70 tumors on CAM; assay type: in vivo, chicken embryo; details: 2.5 μM CDDP, 10 days
Description: as §1

A2780/CP70 cells [3] = test: MTT cell proliferation assay, A2780/CP70 ovarian cancer cells; assay type: cell-based, human; details: for pIC50: 24 h
Description: (§2) FIG. 1. […] (A) A2780/CP70 cells and human fibroblast GM847 cells were seeded in 96-well plate at 4×10^3 cells per well and incubated overnight. […] The cells were incubated for 24 h. Cell proliferation was determined by MTT reduction. […] Cells were trypsinized, harvested, washed once with PBS buffer, and stained using the Annexin-V-Folus Kit as per the manufacture's instructions. […] After incubation, all cells were collected and total DNA was isolated. Eight (8) μg of DNA was resolved on 1.8% agarose gel. […] (D) Treatment of GM847 cells was the same as that of 5D. […] Cleavage of caspase-3 and PARP was detected by western-blot.
FIG. 3. […] A2780/CP70 cells were seeded in 96-well plates and incubated overnight. The old medium was discarded and fresh medium with cisplatin (CDDP) in the presence or absence of apigenin (Api) was added. In 24 h, the cell proliferation was determined by means of MTT reduction method.
FIG. 9. […] A, Cisplatin-resistant ovarian cancer cell line A2780/CP70, and B, prostate cancer cells PC-3 were seeded in 96-well plates at 1×10^4 cells/well and incubated overnight. […] In 24 h, the cell proliferation was assayed by using a MTT assay kit. *indicates significant difference compared to cisplatin alone (p<0.01).

A2780/CP70 cells [4] = test: Annexin V apoptosis assay, A2780/CP70; assay type: cell-based, human; details: A2780/CP70, 10 μM cisplatin, 24 h
Description: as §2
FIG. 10. […] The cisplatin-resistant ovarian cancer A2780/CP70 cells were seeded in a petri dish. […] After treatment, the cells were collected and the relative cellular apoptosis was analyzed by Annexin V Kit (Roche), and compared to the control.

Colo-205 cells = test: MTT cell proliferation assay, Colo-205 colon cancer cells; assay type: cell-based, human; details: colo-205, 15 μM apigenin, 24 h
Description: FIG. 17. […] A, the prostate cancer cells PC-3 and DU145; B, colon cancer cells Colo-205 and HCT-116; C, lung cancer cells A549 and H460 cells were plated at 1×10^4 cells per well in a 96 well plate in 100 μl of media. […] FIG. 20. […] A, the prostate cancer cells PC-3 and DU145; B, colon cancer cells Colo-205 and HCT-116; C, lung cancer cells A549 and H460 cells were plated at 1×10^4 cells per well in a 96 well plate. […] Cell proliferation was examined by MTT assay. […] FIG. 22. […] A, colon cancer cells Colo-205 and HCT-116; B, lung cancer cells A549 and H460 cells were plated at 1×10^4 cells per well in a 96 well plate the day before the treatment. […] Cell proliferation was examined by MTT assay. […] FIG. 24. […] The IC50 values for inhibiting cell proliferation were calculated from cell proliferation assay as described above.

H460 cells = test: MTT cell proliferation assay, H460 lung cancer cells; assay type: cell-based, human; details: H460, 15 μM apigenin, 24 h
Description: FIG. 17. […] A, the prostate cancer cells PC-3 and DU145; B, colon cancer cells Colo-205 and HCT-116; C, lung cancer cells A549 and H460 cells were plated at 1×10^4 cells per well in a 96 well plate in 100 μl of media. […] FIG. 18. […] A and B, the prostate cancer cells PC-3 and DU145; C, colon cancer cells Colo-205 and HCT-116; D, lung cancer cells A549 and H460 cells were plated at 1×10^4 cells per well in a 96 well plate in 100 μl of media. […] The cell proliferation was analyzed by MTT assay. […] FIG. 22. […] A, colon cancer cells Colo-205 and HCT-116; B, lung cancer cells A549 and H460 cells were plated at 1×10^4 cells per well in a 96 well plate the day before the treatment. […] Cell proliferation was examined by MTT assay. […] FIG. 25.

PC-3 cells = test: MTT cell proliferation assay, PC-3 prostate cancer cells; assay type: cell-based, human
Description: (§3) FIG. 8. […] Prostate cancer cells PC-3 and DU145 were seeded in 96-well plates at 1×10^4 cells/well. […] The cell proliferation was assayed by culturing the cells for 24 h, then adding 10 μl of MTT reagent with incubation for 2 h. The reaction was stopped by adding 100 μl of solubilization solution. The relative cell proliferation was obtained by the reading at 590 nm which was recorded in a spectrophotometer, and normalized to the value of control.
FIG. 9. […] A, Cisplatin-resistant ovarian cancer cell line A2780/CP70, and B, prostate cancer cells PC-3 were seeded in 96-well plates at 1×10^4 cells/well and incubated overnight.
(§4) FIG. 17. […] A, the prostate cancer cells PC-3 and DU145; B, colon cancer cells Colo-205 and HCT-116; C, lung cancer cells A549 and H460 cells were plated at 1×10^4 cells per well in a 96 well plate in 100 μl of media.
FIG. 18. […] A and B, the prostate cancer cells PC-3 and DU145; C, colon cancer cells Colo-205 and HCT-116; D, lung cancer cells A549 and H460 cells were plated at 1×10^4 cells per well in a 96 well plate in 100 μl of media. […] The cell proliferation was analyzed by MTT assay.
(§5) FIG. 19. […] A, prostate cancer cells PC-3; and B, DU145 cells were plated at 1×10^4 cells per well in a 96 well plate in 100 μl of media. […] Cell proliferation was examined by MTT assay.
(§6) FIG. 23. […] Cell proliferation was examined by MTT assay.

DU145 cells = test: MTT cell proliferation assay, DU145 prostate cancer cells; assay type: cell-based, human; details: DU145, 15 μM apigenin, 24 h
Description: as §3, §4, §5
FIG. 21. […] A, the prostate cancer cells PC-3 and DU145; B and C, colon cancer cells Colo-205 and HCT-116 were plated at 1×10^4 cells per well in a 96 well plate in 100 μl of media a day before the treatment.
as §6

[5] = test system: PC-3 prostate cancer cells; test: Cell survival by MTT reduction assay with taxol, PC-3; assay type: cell-based, human; details: for pIC50: Homo sapiens, 48 h, read-out: IC50 of cell viability (cell survival)
Description: (§7) FIG. 11. […] PC-3 prostate cancer cells and A2780/CP70 ovarian cancer cells were seeded in 96-well plates and incubated overnight. […] After 48 h, cell survival was determined by means of MTT reduction assay.

[6] = test system: A2780/CP70 ovarian cancer cells; test: Cell survival by MTT reduction assay with taxol, A2780/CP70; assay type: cell-based, human; details: for pIC50: Homo sapiens, A2780/CP70, 48 h, 48 h, read-out: IC50 of cell viability (cell survival)
Description: as §7

Structure (SMILES): N.N.[Cl][Pt][Cl] [cisplatin]
effect on blood vessel formation [1]: slightly inhibited the blood vessel formation
effect on tumor growth [2]: slightly inhibited tumor growth
reduction of cisplatin IC50 by apigenin (A2780/CP70 cells [3]; A2780/CP70, 10 μM apigenin): 4 fold
pIC50 (A2780/CP70 cells [3]; A2780/CP70, cisplatin alone, read-out: concentration of cisplatin needed to inhibit 50% of cell proliferation (IC50)): ~4.70
pIC50 (A2780/CP70 cells [3]; A2780/CP70, with addition of 10 μM apigenin, read-out: IC50 of cisplatin for cell proliferation): 5.30
apoptosis (A2780/CP70 cells [4]): low levels of apoptosis
decrease of IC50 by apigenin (Colo-205 cells): 3 fold
decrease of IC50 by combination with apigenin (H460 cells): 20 fold
reduction of cisplatin IC50 by apigenin (PC-3 cells; PC-3, 10 μM apigenin): 7 fold
pIC50 (PC-3 cells; PC-3, in the presence of 10 μM apigenin, 24 h, read-out: cisplatin concentration giving 50% inhibition of cell proliferation): 5.52

decrease of IC50 by combination with apigenin (H460 cells): 20 fold
reduction of IC50 of doxorubicin by apigenin (PC-3 cells; PC-3, 15 μM apigenin, 24 h): 2 fold
Structure (SMILES): COc1cccc2c1C(=O)c1c(O)c3c(c(O)c1C2=O)C[C@@](O)(C(=O)CO)C[C@@H]3O[C@H]1C[C@H](N)[C@H](O)[C@H](C)O1 [doxorubicin]

reduction of IC50 of fluorouracil by apigenin (DU145 cells): 70%
Structure (SMILES): O=c1[nH]cc(F)c(=O)[nH]1 [fluorouracil, reference compound]

Structure (SMILES): CO[C@@]12[C@H](COC(N)=O)C3=C(C(=O)C(C)=C(N)C3=O)N1C[C@@H]1N[C@@H]12 [mitomycin C]
decrease of IC50 by apigenin (Colo-205 cells): 7 fold

Structure (SMILES): CC(=O)O[C@H]1C(=O)[C@@]2(C)[C@H]([C@H](OC(=O)c3ccccc3)[C@]3(O)C[C@H](OC(=O)[C@H](O)[C@@H](NC(=O)c4ccccc4)c4ccccc4)C(C)=C1C3(C)C)[C@]1(OC(C)=O)CO[C@@H]1C[C@@H]2O [taxol]
pIC50 ([5]; PC-3, taxol alone): 6.24
pIC50 ([5]; PC-3, taxol with 20 μM apigenin): 7.30
taxol IC50 with apigenin, fold less than taxol alone ([5]; PC-3, 20 μM apigenin): 11 fold
taxol IC50 with apigenin, fold less than taxol alone ([6]; A2780/CP70, 20 μM apigenin): 2 fold
pIC50 ([6]; A2780/CP70, taxol alone): 6.30
pIC50 ([6]; A2780/CP70, taxol with 20 μM apigenin): 6.65

From patent US8377918B2 (ACC Therapeutics Inc, priority 2005, dated 2013)
